The test system of this assay is PMA-stimulated P90RSK(Ser380) phosphorylation in HepG2 cells. Briefly: Cellular P90RSK(Ser380) Phosphorylation Assay. It is filed as cell-based. The conditions noted are these: Homo sapiens, read-out: Biological Example 2 IC50 (nM), 1.5 hours compound incubation, PMA 100 ng/mL 30 minutes, normalized to GAPDH, single assay or mean of multiple assays. The method, then: Inhibition of PMA-stimulated P90RSK(Ser380) phosphorylation was determined by the following in vitro cellular mechanistic assay, which comprises incubating cells with a compound for 1.5 hours and quantifying fluorescent pP90RSK(Ser380) signal on fixed cells and normalizing to GAPDH signal.
HepG2 cells were obtained from ATCC and grown in DMEM supplemented with 10% fetal bovine serum. Cells were plated in 96-well plates at 35,000 cells/well and allowed to attach overnight at 37° C./5% CO2. Diluted compounds were then added at a final concentration of 0.5% DMSO. After 1.5 hours compound incubation, cells were stimulated with the addition of phorbol 12-myristate 13-acetate (“PMA”) at a final concentration of 100 ng/mL; the PMA stimulation was a 30-minute incubation at 37° C./5% CO2. After the 30-minute PMA stimulation, cells were washed with phosphate buffered saline (“PBS”) and fixed in 3.7% formaldehyde in PBS at room temperature for 15-20 minutes. This was followed by another wash in PBS and then permeabilization in 100% MeOH at room temperature for 10-15 minutes. Following the permeabilization incubation, cells were washed in PBS/0.05% Tween-20, followed by a block in Odyssey blocking buffer (LI-COR Biosciences) for at least 1 hour. […] Both secondary antibodies were used at a 1:1000 dilution. Cells were then washed and analyzed for fluorescence at both wavelengths using the Odyssey Infrared Imaging System (LI-COR Biosciences). Phosphorylated P90RSK(Ser380) signal was normalized to GAPDH signal.
With `NC[C@H](c1ccc(Cl)c(F)c1)n1ccc(-c2ccnc(NC3CCOCC3)n2)cc1=O` [Example 305, (S)-1-(2-amino-1-(4-chloro-3-fluorophenyl)ethyl)-4-(2-((tetrahydro-2H-pyran-4-yl)amino)pyrimidin-4-yl)pyridin-2(1H)-one], the IC50 is 53 nM. On to `O=c1cc(-c2ccnc(NC3CCOCC3)n2)ccn1[C@H](COP(=O)(O)O)c1ccc(Cl)c(F)c1` [Example α, (S)-2-(4-chloro-3-fluorophenyl)-2-(2-oxo-4-(2-((tetrahydro-2H-pyran-4-yl)amino)pyrimidin-4-yl)pyridin-1(2H)-yl)ethyl dihydrogen phosphate], for which the IC50 was found to be 955 nM. In the case of `O=c1cc(-c2ccnc(NC3CCOCC3)n2)ccn1[C@H](COCOP(=O)(O)O)c1ccc(Cl)c(F)c1` [Example β, (S)-(2-(4-chloro-3-fluorophenyl)-2-(2-oxo-4-(2-((tetrahydro-2H-pyran-4-yl)amino)pyrimidin-4-yl)pyridin-1(2H)-yl)ethoxy)methyl dihydrogen phosphate], the IC50 stood at 99.6 nM.

For the origin of these results see patent US8697715B2, “Serine/threonine kinase inhibitors” (Array BioPharma Inc., priority 2012, dated 2014).
